Several values for one entry are separate records, joined by “and”; a condition that tells them apart may be missing. Equal values may be shown once.
How the values were obtained:
[1] = Acute oral toxicity, OECD 423 test; format: in vivo; settings: for Body weight of individual mice: in g (unit assumed)
Description: 12 female mice were used in the experiment.
The dosage form for the administration was prepared ex tempore.
No deaths were detected either.
Further the observations were made once per day.
The medicament was administered in 2 steps with a break of 3 hours in a volume of 0.1 ml per 10 g of a body weight per step at the concentration of […], because the suspension in oil is thicker at higher concentrations and precludes the medicament to be administered through a gavage. […] Regardless of the group the width of the palpebral fissure of the animals was almost unchanged during the entire observation period. No pathological discharges from the eyes were detected. The nose was pink, moderately moist without pathological discharges. The fur of all mice was neat and shiny without bald spots. A 1% decrease of the animals body weight was registered on Day 2 and a 6% weight decrease on Day 7 from the initial weight (Table 3).

uterine body = assay: Hormonal effects on the uterine body (uterine weight); format: in vivo, mice; settings: for Uterine weight: end of observation
Description: The hormonal effects of the medicament on the uterine body was analyzed by comparing the uterine weight without uterine horns at the end of the observation period (Table 13).

[2] = 300 mg/kg, Day 1 (before administration)
[3] = 2000 mg/kg, Day 1 (before administration)

## C[C@H]1Oc2cc(OS(N)(=O)=O)ccc2C2=C1[C@@H]1CCCC(=O)[C@@]1(C)CC2 [medicament, 3-O-sulfamoyloxy-7β-methyl-O-homo-6-oxaestra-1,3,5(10),8(9)-tetraen]
[1]; 300 mg/kg i.g., entire observation period
  visual signs of intoxication: None of the animals exhibited visual signs of intoxication
[1]; [2]
  Average body weight: 27.4 g
  Body weight of individual mice: 26.4 and 29.6 and 26.0 and 27.0 and 28.0 and 27.5
[1]; 300 mg/kg, Day 2
  Average body weight: 27.1 g
  Average body weight, % from baseline: −1%
  average body weight decrease: 1%
  Body weight of individual mice: 26.8 and 24.2 and 26.5 and 25.2 and 27.3 and 27.6
[1]; 300 mg/kg, Day 7
  Average body weight: 27.6 g
  Average body weight, % from baseline: 1%
  Body weight of individual mice: 27.0 and 29.4 and 27.4 and 25.6 and 28.2 and 28.0
[1]; 300 mg/kg, Day 14
  Average body weight: 28.1 g
  Average body weight, % from baseline: 2%
  Body weight of individual mice: 27.0 and 29.8 and 29.3 and 26.0 and 27.9 and 28.4
[1]; 2000 mg/kg i.g.
  clinical signs of intoxication: No clinical signs of intoxication were observed
[1]; [3]
  Average body weight: 26.2 g
  Body weight of individual mice: 28.4 and 25.0 and 26.6 and 24.0 and 26.7 and 26.4
[1]; 2000 mg/kg, Day 2
  Average body weight: 26.1 g
  Average body weight, % from baseline: −1%
  decrease of body weight from the initial weight: 1%
  Body weight of individual mice: 27.9 and 25.5 and 26.5 and 25.2 and 27.3 and 27.0
[1]; 2000 mg/kg, Day 7
  Average body weight: 24.7 g
  Average body weight, % from baseline: −6%
  decrease of body weight from the initial weight: 6%
  Body weight of individual mice: 24.7 and 24.5 and 25.1 and 25.6 and 28.2 and 25.7
[1]; 2000 mg/kg, Day 14
  Average body weight: 26.3 g
  Body weight of individual mice: 28.3 and 24.9 and 26.4 and 26.0 and 27.9 and 27.0
[1]; Day 15
  macroscopic changes of internal organs at autopsy: no changes of the internal organs were detected
[1]; OECD 423
  hazard category: 5th or unclassified category and 5th or non-classified category
[1]; OECD 423, listed as anti-cancer agent
  hazard category: 5th hazard category
[1]; female, FVB transgenic for HER-2/neu, mouse, in vivo, po, oral (i.g.), mice, OECD 423
  LD50 at 14 days: ≥ 5000 mg/kg
[1]; oral (i.g.), mice, OECD 423, listed as anti-cancer agent
  LD50: > 5000 mg/kg
Uterine body; dose range from 2.0 to 100 mg/kg
  uterine weight differences as compared to the control group: No statistically significant differences
Uterine body; medicament 2 mg/kg, All mice
  Uterine weight: 37 ± 6 MI
Uterine body; medicament 2 mg/kg, estrous cycle phase D
  Uterine weight: 24 ± 7 MI
Uterine body; medicament 2 mg/kg, estrous cycle phase E
  Uterine weight: 53 ± 3 MI
Uterine body; medicament 20 mg/kg, All mice
  Uterine weight: 50 ± 4 MI
Uterine body; medicament 20 mg/kg, estrous cycle phase D
  Uterine weight: 45 ± 13 MI
Uterine body; medicament 20 mg/kg, estrous cycle phase E
  Uterine weight: 53 ± 4 MI
Uterine body; medicament 100 mg/kg, All mice
  Uterine weight: 52 ± 5 MI
Uterine body; medicament 100 mg/kg, estrous cycle phase D
  Uterine weight: 34 ± 13 MI
Uterine body; medicament 100 mg/kg, estrous cycle phase E
  Uterine weight: 56 ± 5 MI
Uterine body; mouse, in vivo
  uterotropic activity: no uterotropic activity

From US12213959B2, “Use of 3-O-sulfamoyloxy-7β-methyl-d-homo-6-oxaestra-1,3,5(10),8(9)-tetraen-17a-one to treat breast cancer” (priority 2018, dated 2025)
